Results as given in patent US10386360B2, “Bio-microelectromechanical system transducer and associated methods” (University of Central Florida Research Foundation, Inc., priority 2009, dated 2019).
Entries after “also recorded” stand apart in the source; their conditions may differ.

Tested on: contractile myotubes
Assay: Veratridine added to electrically stimulated myotubes on microcantilevers, AFM laser detection
Assay type: cell-based, rat
Design: dose or concentration left out as unconfirmed
Conditions: myotubes 10 days in culture, 1 Hz stimulus, veratridine final concentration
Procedure: Skeletal muscle was dissected from the hind limb thighs of a rat fetus at embryonic day 18 (Charles River Laboratories, Wilmington, Mass.) according to a previously published protocol with some modification. Tissue samples were collected in a sterile 15-ml centrifuge tube containing 1 ml of calcium and magnesium free phosphate buffered saline (PBS). Tissue samples were enzymatically disassociated using 3 ml of 0.05% of trypsin-EDTA (Invitrogen, Carlsbad, Calif.) solution for 60 min in a 37° C. water bath with agitation of 100 rpm. After 60 min, the trypsin solution was removed and 6 ml of L15 media (Invitrogen, Carlsbad, Calif.) containing 10% fetal bovine serum (FBS) was added to terminate the trypsin action. The tissue was then mechanically triturated using a sterile narrow bore Pasteur pipette, allowed to settle for 3 min, and transferred to a 15-ml centrifuge tube. This was repeated three times. The dissociated tissue was then centrifuged at 300 g for 10 minutes at 4° C. on 6 ml of a 4% (wt/vol) cushion of bovine serum albumin (BSA). The pellet was resuspended in 10 ml L15+10% FBS and plated in uncoated 100-mm Petri dishes for 20-30 min depending on the amount of tissue, to allow contaminating fibroblasts to settle out. After 20-30 minutes the supernatant was layered on 6 ml of a 4% BSA cushion, and centrifuged at 300 g for 10 min at 4° C. […]

COc1ccc(C(=O)O[C@H]2CC[C@@]3(C)[C@@H]4CC[C@H]5[C@]6(O)C[C@H](O)[C@@]7(O)[C@@H](CN8C[C@@H](C)CC[C@H]8[C@@]7(C)O)[C@]6(O)C[C@@]53O[C@]24O)cc1OC [veratridine]
ability to contract after the initial tetanic contraction: lost the ability to contract further; also recorded: lost the ability to further contract
